From US20020037311A1, “Transdermal delivery of lasofoxifene” (priority 2000, published 2002)
Several values for one entry are separate records, joined by “and”; a condition that tells them apart may be missing. Identical values can stand only once. Like-named read-outs stand apart in the source and are kept apart here.

Assays:
[1] = ovariectomized rats; cited from earlier work
[2] = postmenopausal women; cited from earlier work
[3] = In vitro skin flux, hydroalcoholic gels (liquid reservoir), finite occluded dose, modified Franz diffusion cells; format: in vitro ADME, human; conditions: for Average Daily Flux of CP-336,156 over 7 Days: Example 3 gel EtOH/H2O/Gly/GMO/ML 50/15/30/2.5/2.5% v/v, CP-336,156 tartrate salt 2 mg/ml; for Average Daily Flux of CP-336,156 over 6 Days: Example 4 gel EtOH/H2O/Gly/GMO/LA 30/38/30/1/1% v/v (two-phase dispersion); for Average Daily Flux of CP-336,156 over 6 Days / Average Daily flux over 7 Days, Unenhanced 0% GMO / Average Daily flux over 7 Days, 0.03% GMO / Average Daily flux over 7 Days, 0.06% GMO / Average Daily flux over 7 Days, 0.12% GMO: CP-336,156 tartrate salt 6 mg/ml; for Average Daily flux over 7 Days, Unenhanced 0% GMO: Example 5 gel EtOH/IPA/H2O/Gly 26.25/8.75/35/30% v/v; for Average Daily flux over 7 Days, 0.03% GMO / Average Daily flux over 7 Days, 0.06% GMO / Average Daily flux over 7 Days, 0.12% GMO: Example 5 gel EtOH/IPA/H2O/Gly; for Average Daily flux over 7 Days, 0.03% GMO: 0.03% v/v glycerol monooleate; for Average Daily flux over 7 Days, 0.06% GMO: 0.06% v/v glycerol monooleate; for Average Daily flux over 7 Days, 0.12% GMO: 0.12% v/v glycerol monooleate (cloudy dispersion); for E = Enhancement Factor = Average Daily Flux from Enhanced Formulation/Average Daily Flux from Unenhanced Control: Example 5 gel
Procedure: Hydroalcoholic gels were prepared on a 10 ml scale as follows. Ethyl alcohol (190 proof ethanol), water, glycerin, enhancer and drug were combined in the appropriate proportions and mixed for several hours. The gelling agent (hydroxypropylcellulose) was added and the solution was mixed briefly at high shear, then mixed at low shear until a gel was formed.
(§1) In vitro skin flux studies were conducted using human cadaver epidermal membrane in modified Franz non-jacketed diffusion cells. The epidermal membrane (stratum corneum and epidermis) was separated from whole skin (epidermal membrane and dermis) by the method of Kligman and Christopher (Arch. Dermatol. 88:702 (1963)). This method involves the exposure of the full-thickness skin to water at 60.degree C. for a time period of 60 seconds. After this period, the epidermal membrane was gently peeled off the dermis and stored for later use in aluminum foil at −5° C.
Permeation experiments with hydroalcoholic gels were performed using finite occluded doses. The occluded dose is an appropriate in vitro model for the application of a transdermal patch drug delivery system containing a liquid or gel reservoir.
Occluded dosing experiments were set-up according to the following procedure. Prior to skin permeation experiments, the epidermal membrane was cut to an appropriate size and placed between the two halves of the diffusion cell with the epidermal side facing the receiver compartment. The receiver compartment was filled with an appropriate solution then the diffusion cell was placed in a circulating water bath calibrated to maintain the temperature of the skin surface at 32° C. and allowed to hydrate overnight. After hydration, a sample of the gel (75 µl) was pipetted into a cavity created by placing a polyethylene washer over the stratum corneum surface. This cavity was covered with an occlusive backing film which was clamped in place.
(§2) The following sampling procedure was used for all dosage forms. At predetermined sampling time points, the entire contents of the receiver compartment were collected for drug quantitation and the receiver compartment was filled with fresh solution, taking care to eliminate any air bubbles at the skin/solution interface. […]

[4] = male rats; cited from earlier work
[5] = compared with estradiol therapy; cited from earlier work
[6] = In vitro skin flux, adhesive matrix systems, modified Franz diffusion cells; format: in vitro ADME, human; conditions: for Average Daily Flux of CP-336,156 over 7 Days: Example 1 matrix TSR 58 adhesive/triacetin/CP-336,156 84/10/6% w/w; for Cumulative Permeation of CP-336,156 over 24 Hours, Enhanced 1.5% w/w NaLG: Example 2 matrix Morstik 214, 3% w/w CP-336,156 tartrate salt + 1.5% w/w sodium lauroyl glycolate; for Cumulative Permeation of CP-336,156 over 24 Hours, Unenhanced: Example 2 matrix Morstik 214 water-based adhesive, 3% w/w CP-336,156 tartrate salt, no enhancer; for Enhancement Factor Q24 enhanced/Q24 unenhanced: Example 2 matrix, 1.5% w/w NaLG vs unenhanced
Procedure: Pressure sensitive adhesive matrix systems prepared according to the teachings of U.S. Pat. No. 5,952,000, incorporated herein by reference. First, the solids content of the adhesive solution (water or organic solvent based) was determined by placing a known weight of solution in a weighed aluminum dish and evaporating the solvents overnight in a 70. degree. C. convection oven. The solid adhesive content of the solution was calculated by dividing the adhesive solid weight after drying by the initial total solution weight. Next, a weighed quantity of adhesive solution was added to a glass bottle and the drug substance, permeation enhancer, and other excipients were weighed and added to the adhesive solution in a quantity necessary to achieve the desired dry matrix film composition. The solution containing the adhesive polymer, drug substance, and other excipients as necessary was then mixed overnight. After mixing, approximately 8 ml of the solution was dispensed on a silanized polyester release liner and film cast using a casting knife with a gap size appropriate to achieve a final dried thickness of approximately 0.05 mm. The cast film was dried in a 70° C. convection oven until all solvents had evaporated to yield a dried matrix (15 minutes for organic solvent based adhesives, 30 minutes for water emulsion based adhesives). Finally, an 0.08 mm thick occlusive polyethylene backing film was laminated onto the dried adhesive matrix, and these systems were then used to conduct in vitro skin flux experiments as described below.
as §1
Prior to each permeation experiment with a matrix system, the matrix system was cut into a circular sample of 0.7 cm^2 area and the silanized release liner was removed. The adhesive was affixed to the stratum corneum side of the thawed epidermal membrane which was then cut to an appropriate size and clamped in place between the two halves of the diffusion cell with the stratum corneum facing the donor compartment. The receiver compartment was filled with water or an aqueous solution appropriate to maintain sink conditions for the drug. All receiver solutions included 0.02% (w/w) sodium azide (NaN3) to inhibit bacterial growth. The diffusion cell was placed in a temperature controlled circulating water bath calibrated to maintain the surface temperature of the skin at 32° C. The receiver compartment was constantly stirred by a magnetic stir-bar in the receiver compartment agitated by a magnetic stirring module placed under the water bath.
as §2

[7] = female and male rats; cited from earlier work
[8] = second skin source (name not given), 5 cells
[9] = third skin source (name not given), 5 cells

- Average Daily Flux of CP-336,156 over 7 Days ([3]; All Skins, Mean ± SEM): 21.6 ± 2.3 ug/cm^2/day
- Average Daily Flux of CP-336,156 over 7 Days ([3]; Skin 3A, 8 cells): 174 ± 7.7 ug/cm^2/day
- Average Daily Flux of CP-336,156 over 7 Days ([3]; Skin 3B, 4 cells): 15.3 ± 8.7 ug/cm^2/day
- Average Daily Flux of CP-336,156 over 7 Days ([3]; Skin 3C, 8 cells): 23.9 ± 11.0 ug/cm^2/day
- Average Daily Flux of CP-336,156 over 7 Days ([3]; Skin 3D, 4 cells): 27.9 ± 2.2 ug/cm^2/day
- Average Daily Flux of CP-336,156 over 7 Days ([3]; Skin 3E, 4 cells): 21.2 ± 9.9 ug/cm^2/day
- Average Daily Flux of CP-336,156 over 7 Days ([3]; Skin 3F, 4 cells): 15.4 ± 7.2 ug/cm^2/day
- Average Daily Flux of CP-336,156 over 7 Days ([3]; Skin 3G, 4 cells): 30.3 ± 4.9 ug/cm^2/day
- Average Daily Flux of CP-336,156 over 6 Days ([3]; All Skins, Mean ± SEM): 38.3 ± 3.3 ug/cm^2/day
- Average Daily Flux of CP-336,156 over 6 Days ([3]; Skin 4A, 5 cells): 42.4 ± 15.5 ug/cm^2/day
- Average Daily Flux of CP-336,156 over 6 Days ([3]; Skin 4B, 5 cells): 36.3 ± 5.2 ug/cm^2/day
- Average Daily Flux of CP-336,156 over 6 Days ([3]; Skin 4C, 5 cells): 36.2 ± 14.9 ug/cm^2/day
- Average Daily flux over 7 Days, Unenhanced 0% GMO ([3]; All Skins): 11.8 ug/cm^2/24 h
- Average Daily flux over 7 Days, Unenhanced 0% GMO ([3]; Skin 5A, n = 2-5 cells): 6.4 ug/cm^2/24 h
- Average Daily flux over 7 Days, Unenhanced 0% GMO ([3]; Skin 5B, n = 2-5 cells): 17.4 ug/cm^2/24 h
- Average Daily flux over 7 Days, Unenhanced 0% GMO ([3]; Skin 5C, n = 2-5 cells): 11.6 ug/cm^2/24 h
- Average Daily flux over 7 Days, 0.03% GMO ([3]; All Skins): 33.0 ug/cm^2/24 h
- Average Daily flux over 7 Days, 0.03% GMO ([3]; Skin 5A, n = 2-5 cells): 7.1 ug/cm^2/24 h
- Average Daily flux over 7 Days, 0.03% GMO ([3]; Skin 5B, n = 2-5 cells): 69.5 ug/cm^2/24 h
- Average Daily flux over 7 Days, 0.03% GMO ([3]; Skin 5C, n = 2-5 cells): 22.4 ug/cm^2/24 h
- Average Daily flux over 7 Days, 0.06% GMO ([3]; All Skins): 35.6 ug/cm^2/24 h
- Average Daily flux over 7 Days, 0.06% GMO ([3]; Skin 5A, n = 2-5 cells): 11.6 ug/cm^2/24 h
- Average Daily flux over 7 Days, 0.06% GMO ([3]; Skin 5B, n = 2-5 cells): 74.9 ug/cm^2/24 h
- Average Daily flux over 7 Days, 0.06% GMO ([3]; Skin 5C, n = 2-5 cells): 20.3 ug/cm^2/24 h
- Average Daily flux over 7 Days, 0.12% GMO ([3]; All Skins): 41.8 Ug/cm^2/24 h
- Average Daily flux over 7 Days, 0.12% GMO ([3]; Skin 5A, n = 2-5 cells): 16.8 Ug/cm^2/24 h
- Average Daily flux over 7 Days, 0.12% GMO ([3]; Skin 5B, n = 2-5 cells): 85.2 Ug/cm^2/24 h
- Average Daily flux over 7 Days, 0.12% GMO ([3]; Skin 5C, n = 2-5 cells): 23.6 Ug/cm^2/24 h
- E = Enhancement Factor = Average Daily Flux from Enhanced Formulation/Average Daily Flux from Unenhanced Control ([3]; 0.03% GMO vs 0% GMO, All Skins): 2.34 ± 0.37
- E = Enhancement Factor = Average Daily Flux from Enhanced Formulation/Average Daily Flux from Unenhanced Control ([3]; 0.03% GMO vs 0% GMO, Skin 5A): 1.12
- E = Enhancement Factor = Average Daily Flux from Enhanced Formulation/Average Daily Flux from Unenhanced Control ([3]; 0.03% GMO vs 0% GMO, Skin 5B): 3.99
- E = Enhancement Factor = Average Daily Flux from Enhanced Formulation/Average Daily Flux from Unenhanced Control ([3]; 0.03% GMO vs 0% GMO, Skin 5C): 1.93
- E = Enhancement Factor = Average Daily Flux from Enhanced Formulation/Average Daily Flux from Unenhanced Control ([3]; 0.06% GMO vs 0% GMO, All Skins): 2.62 ± 0.43
- E = Enhancement Factor = Average Daily Flux from Enhanced Formulation/Average Daily Flux from Unenhanced Control ([3]; 0.06% GMO vs 0% GMO, Skin 5A): 1.81
- E = Enhancement Factor = Average Daily Flux from Enhanced Formulation/Average Daily Flux from Unenhanced Control ([3]; 0.06% GMO vs 0% GMO, Skin 5B): 4.30
- E = Enhancement Factor = Average Daily Flux from Enhanced Formulation/Average Daily Flux from Unenhanced Control ([3]; 0.06% GMO vs 0% GMO, Skin 5C): 1.74
- E = Enhancement Factor = Average Daily Flux from Enhanced Formulation/Average Daily Flux from Unenhanced Control ([3]; 0.12% GMO vs 0% GMO, All Skins): 3.18 ± .36
- E = Enhancement Factor = Average Daily Flux from Enhanced Formulation/Average Daily Flux from Unenhanced Control ([3]; 0.12% GMO vs 0% GMO, Skin 5A): 2.62
- E = Enhancement Factor = Average Daily Flux from Enhanced Formulation/Average Daily Flux from Unenhanced Control ([3]; 0.12% GMO vs 0% GMO, Skin 5B): 4.89
- E = Enhancement Factor = Average Daily Flux from Enhanced Formulation/Average Daily Flux from Unenhanced Control ([3]; 0.12% GMO vs 0% GMO, Skin 5C): 2.03
- Average Daily Flux of CP-336,156 over 7 Days ([6]; All Skins, Mean ± SEM): 8.6 ± 1.2 µg/cm²/day
- Average Daily Flux of CP-336,156 over 7 Days ([6]; Skin 1B, 4 diffusion cells): 5.7 ± 0.8 µg/cm²/day
- Average Daily Flux of CP-336,156 over 7 Days ([6]; Skin 1C, 8 diffusion cells): 9.2 ± 2.9 µg/cm²/day
- Average Daily Flux of CP-336,156 over 7 Days ([6]; Skin 1D, 4 diffusion cells): 13.4 ± 7.8 µg/cm²/day
- Average Daily Flux of CP-336,156 over 7 Days ([6]; Skin 1E, 4 diffusion cells): 10.2 ± 3.4 µg/cm²/day
- Average Daily Flux of CP-336,156 over 7 Days ([6]; Skin 1F, 4 diffusion cells): 5.1 ± 1.1 µg/cm²/day
- Average Daily Flux of CP-336,156 over 7 Days ([6]; Skin 1G, 4 diffusion cells): 11.4 ± 2.4 µg/cm²/day
- Average Daily Flux of CP-336,156 over 7 Days ([6]; Skin IA, 7 diffusion cells): 5.5 ± 3.4 µg/cm²/day
- Cumulative Permeation of CP-336,156 over 24 Hours, Enhanced 1.5% w/w NaLG ([6]; All Skins Mean ± SEM): 1.42 ± 1.05 μg/cm^2/24 h
- Cumulative Permeation of CP-336,156 over 24 Hours, Enhanced 1.5% w/w NaLG ([6]; Skin 2A, 5 cells): 0.30 ± 0.12 μg/cm^2/24 h
- Cumulative Permeation of CP-336,156 over 24 Hours, Enhanced 1.5% w/w NaLG [6, 8]: 3.51 ± 0.93 μg/cm^2/24 h
- Cumulative Permeation of CP-336,156 over 24 Hours, Enhanced 1.5% w/w NaLG [6, 9]: 0.46 ± 0.16 μg/cm^2/24 h
- Cumulative Permeation of CP-336,156 over 24 Hours, Unenhanced ([6]; All Skins Mean ± SEM): 0.99 ± 0.85 μg/cm^2/24 h
- Cumulative Permeation of CP-336,156 over 24 Hours, Unenhanced ([6]; Skin 2A, 5 cells): 0.13 ± 0.09 μg/cm^2/24 h
- Cumulative Permeation of CP-336,156 over 24 Hours, Unenhanced [6, 8]: 2.70 ± 1.08 μg/cm^2/24 h
- Cumulative Permeation of CP-336,156 over 24 Hours, Unenhanced [6, 9]: 0.15 ± 0.09 μg/cm^2/24 h
- Enhancement Factor Q24 enhanced/Q24 unenhanced ([6]; All Skins Mean ± SEM): 2.2 and 2.21 ± 0.51
- Enhancement Factor Q24 enhanced/Q24 unenhanced ([6]; Skin 2A): 2.28
- Enhancement Factor Q24 enhanced/Q24 unenhanced ([6]; second skin source (name not given)): 1.30
- Enhancement Factor Q24 enhanced/Q24 unenhanced ([6]; third skin source (name not given)): 3.06
Compound: Oc1ccc2c(c1)CC[C@H](c1ccccc1)[C@@H]2c1ccc(OCCN2CCCC2)cc1 [CP-336,156, lasofoxifene]
- bone loss [1]: prevent bone loss
- bone loss [2]: prevent bone loss
- effect on prostate [4]: did not affect prostate
- uterine-stimulating effects [5]: without the uterine-stimulating effects
- total serum cholesterol [7]: decreased
